Values quoted from earlier work in patent publication US20140371418A1, “BIOLOGICAL SYNTHESIS OF P-AMINOBENZOIC ACID, P-AMINOPHENOL, N-(4-HYDROXYPHENYL)ETHANAMIDE AND DERIVATIVES THEREOF” (pAromatics, LLC, priority 2012, published 2014).

For `Nc1ccc(C(=O)O)cc1` [PABA, p-aminobenzoic acid], the “solubility of PABA in water” value is listed as 0.072 M and about 10 g/L and the “inhibition of growth of bacteria and fungi” value (bacteria and fungi) is listed as “inhibits growth”.
